# Measured values from publication PMC7004250 (Cell chemical biology, 2019).
# Columns and labels:
# EED in HeLa cells [1] = target: T1, EED in HeLa cells (Homo sapiens, UniProt O75530); assay: Western blot EED degradation in HeLa cells; assay type: cell-based; details: for EED protein levels: 10 μM, 24 to 72 hrs
# DB cell viability = assay type: cell-based; details: human, DB cells
# EZH2 in HeLa cells [2] = assay: Western blot EZH2 degradation in HeLa cells; assay type: cell-based, human; details: for EZH2 protein levels: 10 μM, 24 to 72 hrs
# H3K27me3 in HeLa cells = assay: Western blot H3K27me3 levels in HeLa cells; assay type: cell-based, human; details: for H3K27me3 reduced: 10 μM, after 72 hours
# EED = details: read-out: reported IC50 (EED); ref Huang et al., 2017; cited from earlier work
# EED in HeLa cells [3] = target: T1, EED in HeLa cells; assay: Jess ProteinSimple analysis of EED levels; assay type: cell-based; details: 5 μM, 4, 24 and 48 hrs, decrease stated at 24 hrs
# [4] = target: 6XHis-tagged recombinant EED (residues 1 – 441) (Homo sapiens, UniProt O75530); assay: TR-FRET EED binding assay; details: TR-FRET EED IC50 relative to EED226
# Chain of 6XHis-tagged recombinant EED (residues 1 – 441) (O75530 whole entry, the tested form may be a part): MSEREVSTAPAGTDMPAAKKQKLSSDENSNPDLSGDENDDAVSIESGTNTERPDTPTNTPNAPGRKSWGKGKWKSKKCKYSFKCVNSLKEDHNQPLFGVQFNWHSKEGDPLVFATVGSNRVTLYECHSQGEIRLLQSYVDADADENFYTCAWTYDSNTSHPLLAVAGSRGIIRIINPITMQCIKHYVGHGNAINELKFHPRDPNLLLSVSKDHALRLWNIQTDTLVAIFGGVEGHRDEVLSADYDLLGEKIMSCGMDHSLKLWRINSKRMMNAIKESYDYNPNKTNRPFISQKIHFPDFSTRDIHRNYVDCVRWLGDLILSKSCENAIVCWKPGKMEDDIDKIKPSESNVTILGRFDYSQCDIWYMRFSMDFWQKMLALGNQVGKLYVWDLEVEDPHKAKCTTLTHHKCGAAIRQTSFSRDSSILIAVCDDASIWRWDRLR
# EZH2 in HeLa cells [5] = assay: Jess ProteinSimple analysis of EZH2 levels; assay type: cell-based, human; details: 5 μM, 4, 24 and 48 hrs, decrease stated at 24 hrs
# DB cells = assay: DB cell proliferation; assay type: cell-based, human; details: up to 12 days, 3 μM (Figure 6A)
# Pfeiffer cells = assay: Pfeiffer cell proliferation; assay type: cell-based, human; details: up to 12 days, 3 μM (Figure 6B)
# [6] = test system: H3K27me3 in DB cells (EZH2^Y641N); assay: Western blot H3K27me3 levels in DB cells; assay type: cell-based, human; details: 10 μM, after 72 hours
# [7] = target: PRC2 subunits in Pfeiffer cells (EZH2^A677G) (Homo sapiens, UniProt O75530); assay: PRC2 degradation in Pfeiffer cells; assay type: cell-based; details: Figure S6
# Chain of PRC2 subunits in Pfeiffer cells (EZH2^A677G) (O75530 whole entry, stated change not applied): as the sequence (O75530 whole entry, the tested form may be a part) above
# Chain of PRC2 subunits in Pfeiffer cells (EZH2^A677G) (Q15910 whole entry A677G partner): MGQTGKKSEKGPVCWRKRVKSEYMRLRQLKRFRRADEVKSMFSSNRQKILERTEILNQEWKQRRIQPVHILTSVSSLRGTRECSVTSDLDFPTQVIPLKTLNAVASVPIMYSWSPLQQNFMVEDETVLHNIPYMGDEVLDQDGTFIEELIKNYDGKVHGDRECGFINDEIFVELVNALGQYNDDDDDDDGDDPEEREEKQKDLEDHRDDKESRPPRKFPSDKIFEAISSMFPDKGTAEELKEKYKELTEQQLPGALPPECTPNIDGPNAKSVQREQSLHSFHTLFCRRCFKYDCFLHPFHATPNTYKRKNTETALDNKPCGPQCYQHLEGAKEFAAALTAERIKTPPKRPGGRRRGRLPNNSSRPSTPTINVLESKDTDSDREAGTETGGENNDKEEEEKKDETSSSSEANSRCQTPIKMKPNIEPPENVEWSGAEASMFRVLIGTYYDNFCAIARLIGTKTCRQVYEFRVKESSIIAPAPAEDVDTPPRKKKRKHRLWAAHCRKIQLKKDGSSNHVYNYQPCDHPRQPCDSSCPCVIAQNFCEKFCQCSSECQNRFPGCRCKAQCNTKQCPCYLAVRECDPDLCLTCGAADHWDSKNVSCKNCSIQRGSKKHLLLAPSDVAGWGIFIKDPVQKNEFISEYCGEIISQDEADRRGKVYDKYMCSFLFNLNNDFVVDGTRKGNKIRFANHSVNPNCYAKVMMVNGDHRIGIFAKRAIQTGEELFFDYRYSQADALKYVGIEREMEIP
# Chain of PRC2 subunits in Pfeiffer cells (EZH2^A677G) (Q15022 whole entry partner): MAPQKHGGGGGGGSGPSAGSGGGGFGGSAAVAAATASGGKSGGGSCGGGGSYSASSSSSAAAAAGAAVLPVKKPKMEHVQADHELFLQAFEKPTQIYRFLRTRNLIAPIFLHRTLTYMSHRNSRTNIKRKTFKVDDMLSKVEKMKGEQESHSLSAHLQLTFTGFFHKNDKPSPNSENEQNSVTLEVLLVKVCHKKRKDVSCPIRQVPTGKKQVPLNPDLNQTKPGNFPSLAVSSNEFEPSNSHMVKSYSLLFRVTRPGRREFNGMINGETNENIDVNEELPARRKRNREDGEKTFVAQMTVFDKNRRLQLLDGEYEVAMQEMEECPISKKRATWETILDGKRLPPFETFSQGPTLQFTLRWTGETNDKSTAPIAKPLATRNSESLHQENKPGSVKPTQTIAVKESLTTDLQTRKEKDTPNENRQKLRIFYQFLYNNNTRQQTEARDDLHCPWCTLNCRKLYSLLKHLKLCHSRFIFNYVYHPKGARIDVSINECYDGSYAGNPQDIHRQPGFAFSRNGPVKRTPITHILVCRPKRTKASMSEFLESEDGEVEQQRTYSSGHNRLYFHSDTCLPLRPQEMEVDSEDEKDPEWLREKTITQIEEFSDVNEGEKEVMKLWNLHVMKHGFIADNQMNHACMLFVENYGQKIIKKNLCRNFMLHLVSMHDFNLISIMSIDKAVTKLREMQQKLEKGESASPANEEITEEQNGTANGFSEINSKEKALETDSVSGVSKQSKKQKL
# HeLa cells = assay: Cellular toxicity in HeLa cells; assay type: cell-based, human; details: concentrations up to 30 μM
# [8] = test system: SUZ12 in DB cells (EZH2^Y641N); assay: Western blot SUZ12 degradation in DB cells; assay type: cell-based, human
# [9] = target: EED in DB cells (EZH2^Y641N) (Homo sapiens, UniProt O75530); assay: Western blot EED degradation in DB cells; assay type: cell-based
# Chain of EED in DB cells (EZH2^Y641N) (O75530 2-441 limits assumed, stated change not applied): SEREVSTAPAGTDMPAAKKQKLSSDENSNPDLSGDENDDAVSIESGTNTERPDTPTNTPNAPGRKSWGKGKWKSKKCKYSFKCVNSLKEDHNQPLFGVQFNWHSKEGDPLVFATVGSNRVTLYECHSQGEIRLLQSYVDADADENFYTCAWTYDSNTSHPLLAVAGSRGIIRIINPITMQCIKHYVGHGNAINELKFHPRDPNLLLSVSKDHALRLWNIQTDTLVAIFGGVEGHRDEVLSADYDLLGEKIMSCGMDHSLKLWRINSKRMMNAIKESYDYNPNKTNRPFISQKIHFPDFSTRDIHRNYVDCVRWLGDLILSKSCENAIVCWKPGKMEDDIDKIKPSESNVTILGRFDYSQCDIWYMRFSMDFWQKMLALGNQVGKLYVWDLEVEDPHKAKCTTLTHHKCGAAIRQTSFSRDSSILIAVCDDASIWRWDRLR
# [10] = test system: EZH2/EZH2^Y641N in DB cells; assay: Western blot EZH2 degradation in DB cells; assay type: cell-based, human
# SUZ12 in HeLa cells [11] = assay: Global proteomics; assay type: cell-based, human; details: 10 μM, 24 hrs, TMT proteomics
# SUZ12 in HeLa cells [12] = assay: Western blot SUZ12 degradation in HeLa cells; assay type: cell-based, human
# T1 sequence (O75530 whole entry): as the sequence (O75530 whole entry, the tested form may be a part) above
SMILES,EED protein levels (EED in HeLa cells [1]; HeLa cells),"viability at 12 days, 3 μM (DB cell viability)",EZH2 protein levels (EZH2 in HeLa cells [2]),H3K27me3 reduced (H3K27me3 in HeLa cells),EED levels (Jess) (EED in HeLa cells [3]),loss in potency compared to EED226 [4],EZH2 levels (Jess) (EZH2 in HeLa cells [5]),also measured
"CS(=O)(=O)c1ccc(-c2cnc(NCc3ccco3)n3cnnc23)cc1 [EED226, reference compound]",had no effect,67%,had no effect,52%,–,–,–,IC50 (EED): 0.022 µM
"CCCc1cc(C)[nH]c(=O)c1CNC(=O)c1cc(-c2ccc(N3CCN(C(C)C)CC3)nc2)cc2c1cnn2C(C)C [UNC1999, reference compound]",had no effect,67%,had no effect,60%,–,–,–,–
"Cc1ncsc1-c1ccc(CNC(=O)[C@@H]2C[C@@H](O)CN2C(=O)[C@@H](NC(=O)CCOCCOCCNC(=O)c2ccc(-c3cnc(NCc4ccco4)n4cnnc34)cc2)C(C)(C)C)cc1 [UNC6845, (2S,4R)-1-((S)-13-(tert-butyl)-1-(4-(5-((furan-2-ylmethyl)amino)-[1,2,4]triazolo[4,3-c]pyrimidin-8-yl)phenyl)-1,11-dioxo-5,8-dioxa-2,12-diazatetradecan-14-oyl)-4-hydroxy-N-(4-(4-methylthiazol-5-yl)benzyl)pyrrolidine-2-carboxamide]",–,–,–,–,unable to alter the levels,2 fold,unable to alter the levels,–
"Cc1ncsc1-c1ccc(CNC(=O)[C@@H]2C[C@@H](O)CN2C(=O)[C@@H](NC(=O)COCCOCCOCCNC(=O)c2ccc(-c3cnc(NCc4ccco4)n4cnnc34)cc2)C(C)(C)C)cc1 [UNC6846, (2S,4R)-1-((S)-15-(tert-butyl)-1-(4-(5-((furan-2-ylmethyl)amino)-[1,2,4]triazolo[4,3-c]pyrimidin-8-yl)phenyl)-1,13-dioxo-5,8,11-trioxa-2,14-diazahexadecan-16-oyl)-4-hydroxy-N-(4-(4-methylthiazol-5-yl)benzyl)pyrrolidine-2-carboxamide]",–,–,–,–,unable to alter the levels,14 fold,unable to alter the levels,–
"Cc1ncsc1-c1ccc(CNC(=O)[C@@H]2C[C@@H](O)CN2C(=O)[C@@H](NC(=O)CCOCCOCCOCCOCCNC(=O)c2ccc(-c3cnc(NCc4ccco4)n4cnnc34)cc2)C(C)(C)C)cc1 [UNC6847, (2S,4R)-1-((S)-19-(tert-butyl)-1-(4-(5-((furan-2-ylmethyl)amino)-[1,2,4]triazolo[4,3-c]pyrimidin-8-yl)phenyl)-1,17-dioxo-5,8,11,14-tetraoxa-2,18-diazaicosan-20-oyl)-4-hydroxy-N-(4-(4-methylthiazol-5-yl)benzyl)pyrrolidine-2-carboxamide]",–,–,–,–,unable to alter the levels,5 fold,unable to alter the levels,–
"Cc1ncsc1-c1ccc(CNC(=O)[C@@H]2C[C@@H](O)CN2C(=O)[C@@H](NC(=O)CCNC(=O)c2ccc(-c3cnc(NCc4ccco4)n4cnnc34)cc2)C(C)(C)C)cc1 [UNC6851, (2S,4R)-1-((S)-2-(3-(4-(5-((furan-2-ylmethyl)amino)-[1,2,4]triazolo[4,3-c]pyrimidin-8-yl)benzamido)propanamido)-3,3-dimethylbutanoyl)-4-hydroxy-N-(4-(4-methylthiazol-5-yl)benzyl)pyrrolidine-2-carboxamide]",–,–,–,–,decrease in the levels,6 fold,decrease in the levels,–
"Cc1ncsc1-c1ccc(CNC(=O)[C@@H]2C[C@@H](O)CN2C(=O)[C@@H](NC(=O)CCCNC(=O)c2ccc(-c3cnc(NCc4ccco4)n4cnnc34)cc2)C(C)(C)C)cc1 [UNC6852, (2S,4R)-1-((S)-2-(4-(4-(5-((furan-2-ylmethyl)amino)-[1,2,4]triazolo[4,3-c]pyrimidin-8-yl)benzamido)butanamido)-3,3-dimethylbutanoyl)-4-hydroxy-N-(4-(4-methylthiazol-5-yl)benzyl)pyrrolidine-2-carboxamide]",decrease in protein levels,95%,decrease in protein levels,51%,decrease in the levels,5.5 fold,decrease in the levels,"effect on cell proliferation (DB cells): robust anti-proliferative effects; effect on cell proliferation (Pfeiffer cells): robust anti-proliferative effects; EED degradation (EED in HeLa cells [1]; HeLa cells, 5 μM, 24 hours, western blot): 80%; Dmax at 30 µM (EED in HeLa cells [1]; HeLa, read-out: Dmax EED (maximal degradation)): 92%; loss of H3K27me3 [6]: 71%; degradation of PRC2 subunits [7]: degradation of all three PRC2 subunits; cellular toxicity (HeLa cells): no cellular toxicity was observed; EZH2 degradation (EZH2 in HeLa cells [2]; 5 μM, 24 hours, western blot): 76%; Dmax EZH2 (maximal degradation) (EZH2 in HeLa cells [2]; % degradation at 30 μM after 24 hours): 75%; Dmax SUZ12 ([8]; DB cells): 82%; maximal degradation of SUZ12 in DB cells relative to HeLa cells ([8]; DB vs HeLa): 3.7 fold; EC50 ([8]; read-out: half maximal degradation concentration SUZ12, DB cells, 24 hours): 0.59 ± 0.17 µM; Dmax ([9]; DB, read-out: Dmax EED): 94%; DC50 ([9]; read-out: DC50 EED, DB cells, 24 hours): 0.61 ± 0.18 µM; Dmax EZH2/EZH2^Y641N [10]: 96%; DC50 ([10]; read-out: DC50 EZH2/EZH2^Y641N, 24 hours): 0.67 ± 0.24 µM; H3K27me3 levels after 96 hours (H3K27me3 in HeLa cells; 96 hours of treatment): further decrease in H3K27me3 levels; SUZ12 degradation (proteomics) (SUZ12 in HeLa cells [11]): 21%; SUZ12 log2 fold change (treated/DMSO treated) (SUZ12 in HeLa cells [11]): −0.34; Dmax SUZ12 (maximal degradation) (SUZ12 in HeLa cells [12]; western blot): 22%"
"Cc1ncsc1-c1ccc(CNC(=O)[C@@H]2C[C@@H](O)CN2C(=O)[C@@H](NC(=O)CCCCNC(=O)c2ccc(-c3cnc(NCc4ccco4)n4cnnc34)cc2)C(C)(C)C)cc1 [UNC6853, (2S,4R)-1-((S)-2-(5-(4-(5-((furan-2-ylmethyl)amino)-[1,2,4]triazolo[4,3-c]pyrimidin-8-yl)benzamido)pentanamido)-3,3-dimethylbutanoyl)-4-hydroxy-N-(4-(4-methylthiazol-5-yl)benzyl)pyrrolidine-2-carboxamide]",–,–,–,–,significant degradation was not observed,8 fold,significant degradation was not observed,–
"Cc1ncsc1-c1ccc(CNC(=O)[C@@H]2C[C@H](O)CN2C(=O)[C@@H](NC(=O)CCCNC(=O)c2ccc(-c3cnc(NCc4ccco4)n4cnnc34)cc2)C(C)(C)C)cc1 [UNC7043, (2S,4S)-1-((S)-2-(4-(4-(5-((furan-2-ylmethyl)amino)-[1,2,4]triazolo[4,3-c]pyrimidin-8-yl)benzamido)butanamido)-3,3-dimethylbutanoyl)-4-hydroxy-N-(4-(4-methylthiazol-5-yl)benzyl)pyrrolidine-2-carboxamide]",–,–,–,–,–,–,–,"effect on cell proliferation (DB cells): had no effect on cell proliferation; effect on cell proliferation (Pfeiffer cells): had no effect on cell proliferation; EED degradation (western blot) (EED in HeLa cells [1]; HeLa cells, 10 μM for 24 hrs): did not degrade; EZH2 degradation (western blot) (EZH2 in HeLa cells [2]; 10 μM for 24 hrs): did not degrade; SUZ12 levels (western blot) ([8]; DB cells, 10 μM for 24 hours): did not affect the levels; EED levels (western blot) ([9]; DB cells, 10 μM for 24 hours): did not affect the levels; EZH2 levels (western blot) ([10]; 10 μM for 24 hours): did not affect the levels; SUZ12 degradation (western blot) (SUZ12 in HeLa cells [12]; 10 μM for 24 hrs): did not degrade"
